Laboratory results: patent US10562869B2, “Oxadiazole compounds” (REMYND NV, priority 2014, dated 2020)

What follows are compounds tested on M17_3SYN cells (assay: Paraquat-induced cytotoxicity (LDH) in α-synuclein over-expressing M17_3SYN neuroblastoma cells). Settings: Homo sapiens, Neuroblastoma cell, 48 h, toxicity inhibition (LDH) in M17_3SYN cells challenged with 6 mM paraquat, 2 days; read-out: SYN EC50.
Format: cell-based, human
Excerpt: A α-synuclein expression plasmid was constructed by subcloning the NcoI/XhoI fragment from 212T-SYN(WT) (Griffioen et al., Biochem Biophys Acta (2006) 1762(3):312-318) containing the cDNA of human wild type α-synuclein correspondingly into a standard mammalian expression vector pcDNA3.1 resulting in plasmid pcDNA3.1-SYNwt. Plasmids pcDNA3.1 and pcDNA3.1-SYNwt were transfected into human neuroblastoma cells (BE-M17; ATCC No. CRL-2267™) using lipofectamine reagent and subsequently, independent clonal cell lines with the plasmids stably integrated into the genome were selected by antibiotic resistance selection (Geneticin (G418)), resulting in cell lines M17.pcDNA3 and M17_3SYN. Overexpression of α-synuclein in the M17_3SYN cell line was confirmed by Western blot analysis.
Due to the high levels of α-synuclein, M17_3SYN cells were sensitive to paraquat, a well-known risk factor Parkinson's disease and of synuclein-dependent neuronal degeneration. Cytotoxicity of cells was measured by quantification of lactate dehydrogenase (LDH) levels. In dead cells, LDH leaked out of the cells into the medium due to a loss of plasma-membrane integrity.
[…], primary pre-cultures of M17.pcDNA3 (as possible control) and M17_3SYN cells were prepared, starting from a stock culture, at a density of 20.000-40.000 cells/cm2 in culture medium (Opti-MEM® Reduced Serum Medium with Phenol Red (Invitrogen, Cat. 31985-047) supplemented with 10% FCS, 1 mM sodium pyruvate, 1×NEAA, 500 μg/ml G418 and 0.5×antibiotic/antimycotic (ABAM)). 3 days later these primary pre-cultures were used as a starting point to make secondary pre-cultures at a density of 50.000-100.000 cells/cm^2. At the day of the experiment these secondary precultures were diluted to ˜0.5·10^6 cells/ml in detection medium (Opti-MEM® Reduced-Serum Medium without Phenol Red (Invitrogen, Cat. 11085-021) supplemented with 10% FCS, 1 mM sodium pyruvate, 1×NEAA, 500 μg/ml G418 and 0.5×ABAM) and 60 μL of this suspension was dispensed per well into a 96-well microtiter plate. After 3 hours of incubation at 37° C./5% CO2 an equal volume of detection medium containing a final concentration of 6 mM Paraquat was added and subsequently incubated for 2 days at 37° C./5% CO2. Then LDH activity was determined using the Promega Cytotox 96 Non-Radioactive cytotoxicity assay (Promega, Cat. G1780), according to the manufacturer's instructions. Cytotoxicity was defined as the ratio of LDH relative to the total LDH in the cells and supernatant.
The assay described above using the M17_3SYN cell line allowed screening compounds for their ability to decrease cytotoxicity in PQ-challenged cells. Compounds of the invention were tested for their ability to decrease toxicity at different concentrations, ranging from low non-effective concentrations to high effective concentrations. Afterwards, a dose-dependent inhibition curve was used to calculate the EC50. A compound was considered to be active in this test when it inhibited toxicity by more than 20% relative to untreated M17_3SYN cells at a concentration of 10 μM or lower.

Compound	EC50 [nM]
O=S(=O)(c1ccc(OC(F)F)cc1)N1CCN(c2nc(C(F)(F)c3ccccc3)no2)CC1 [Cmpd158, 1-(4-Difluoromethoxy-benzenesulfonyl)-4-[3-(difluoro-phenyl-methyl)-[1,2,4]oxadiazol-5-yl]-piperazine]	31
COc1ccc(S(=O)(=O)N2CCN(c3nc(CC4CC4)no3)CC2)cc1 [Cmpd159, 3-(Cyclopropylmethyl)-5-(4-((4-methoxyphenyl)sulfonyl)piperazin-1-yl)-1,2,4-oxadiazole]	95
O=S(=O)(c1ccc(OC(F)F)cc1)N1CCN(c2nc(CC3CC3)no2)CC1 [Cmpd160, 3-(Cyclopropylmethyl)-5-(4-((4-(difluoromethoxy)phenyl)sulfonyl)piperazin-1-yl)-1,2,4-oxadiazole]	148
CSc1ccc(S(=O)(=O)N2CCN(c3nc(CC4CC4)no3)CC2)cc1 [Cmpd161, 3-(Cyclopropylmethyl)-5-(4-((4-(methylthio)phenyl)sulfonyl)piperazin-1-yl)-1,2,4-oxadiazole]	23
CCOc1ccc(S(=O)(=O)N2CCN(c3nc(CC4CC4)no3)CC2)cc1 [Cmpd162, 3-(Cyclopropylmethyl)-5-(4-((4-ethoxyphenyl)sulfonyl)piperazin-1-yl)-1,2,4-oxadiazole]	224
COc1ccc(S(=O)(=O)N2CCN(c3nc(CC(F)(F)F)no3)CC2)cc1 [Cmpd165, 5-(4-((4-Methoxyphenyl)sulfonyl)piperazin-1-yl)-3-(2,2,2-trifluoroethyl)-1,2,4-oxadiazole]	32
CCOc1ccc(S(=O)(=O)N2CCN(c3nc(CC(F)(F)F)no3)CC2)cc1 [Cmpd166, 5-(4-((4-Ethoxyphenyl)sulfonyl)piperazin-1-yl)-3-(2,2,2-trifluoroethyl)-1,2,4-oxadiazole]	368
O=S(=O)(c1ccc(OC(F)F)cc1)N1CCN(c2nc(CC(F)(F)F)no2)CC1 [Cmpd167, 5-(4-((4-(Difluoromethoxy)phenyl)sulfonyl)piperazin-1-yl)-3-(2,2,2-trifluoroethyl)-1,2,4-oxadiazole]	10000
CSc1ccc(S(=O)(=O)N2CCN(c3nc(CC(F)(F)F)no3)CC2)cc1 [Cmpd168, 5-(4-((4-(Methylthio)phenyl)sulfonyl)piperazin-1-yl)-3-(2,2,2-trifluoroethyl)-1,2,4-oxadiazole]	198
COc1ccc(S(=O)(=O)N2CCN(c3nc(Cc4ccnc(C)c4)no3)CC2)cc1 [Cmpd169, 1-(4-Methoxy-benzenesulfonyl)-4-[3-(2-methyl-pyridin-4-ylmethyl)-[1,2,4]oxadiazol-5-yl]-piperazine]	34
COc1ccc(S(=O)(=O)N2CCN(c3nc(CCC(F)(F)F)no3)CC2)cc1 [Cmpd171, 5-(4-((4-Methoxyphenyl)sulfonyl)piperazin-1-yl)-3-(3,3,3-trifluoropropyl)-1,2,4-oxadiazole]	248
CSc1ccc(S(=O)(=O)N2CCN(c3nc(CCC(F)(F)F)no3)CC2)cc1 [Cmpd172, 5-(4-((4-(Methylthio)phenyl)sulfonyl)piperazin-1-yl)-3-(3,3,3-trifluoropropyl)-1,2,4-oxadiazole]	166
O=S(=O)(c1ccc(OC(F)F)cc1)N1CCN(c2nc(CCC(F)(F)F)no2)CC1 [Cmpd173, 5-(4-((4-(Difluoromethoxy)phenyl)sulfonyl)piperazin-1-yl)-3-(3,3,3-trifluoropropyl)-1,2,4-oxadiazole]	438
COc1ccc(S(=O)(=O)N2CCN(c3nc(C4C[C@@H]5CC[C@H]4C5)no3)CC2)cc1 (stereo partly drawn) [Cmpd190, 3-((1S,4R)-bicyclo[2.2.1]heptan-2-yl)-5-(4-((4-methoxyphenyl)sulfonyl)piperazin-1-yl)-1,2,4-oxadiazole]	215
O=S(=O)(c1ccc(OC(F)F)cc1)N1CCN(c2nc(C3C[C@@H]4CC[C@H]3C4)no2)CC1 (stereo partly drawn) [Cmpd192, 3-((1 S,4R)-bicyclo[2.2.1]heptan-2-yl)-5-(4-((4-(difluoromethoxy)phenyl)sulfonyl)piperazin-1-yl)-1,2,4-oxadiazole]	164
CC(C)(c1ccccc1)c1noc(N2CCN(S(=O)(=O)c3ccc(OC(F)F)cc3)CC2)n1 [Cmpd196, 1-(4-Difluoromethoxy-benzenesulfonyl)-4-[3-(1-methyl-1-phenyl-ethyl)-[1,2,4]oxadiazol-5-yl]-piperazine]	8
COc1ccc(S(=O)(=O)N2CCN(c3nc(C(C)(C)c4ccccc4)no3)CC2)cc1 [Cmpd197, 1-(4-Methoxy-benzenesulfonyl)-4-[3-(1-methyl-1-phenyl-ethyl)-[1,2,4]oxadiazol-5-yl]-piperazine]	2
COc1ccc(S(=O)(=O)N2CCN(c3nc(COc4ccc(Cl)cc4)no3)CC2)cc1 [Cmpd200, 3-((4-Chlorophenoxy)methyl)-5-(4-((4-methoxyphenyl)sulfonyl)piperazin-1-yl)-1,2,4-oxadiazole]	22
COc1ccc(S(=O)(=O)N2CCN(c3nc(COc4cccc(Cl)c4)no3)CC2)cc1 [Cmpd201, 3-((3-Chlorophenoxy)methyl)-5-(4-((4-methoxyphenyl)sulfonyl)piperazin-1-yl)-1,2,4-oxadiazole]	11
COc1ccc(S(=O)(=O)N2CCN(c3nc(COc4ccccc4)no3)CC2)cc1 [Cmpd202, 5-(4-((4-Methoxyphenyl)sulfonyl)piperazin-1-yl)-3-(phenoxymethyl)-1,2,4-oxadiazole]	11
COc1ccc(S(=O)(=O)N2CCN(c3nc(COc4cccnc4)no3)CC2)cc1 [Cmpd204, 5-(4-((4-Methoxyphenyl)sulfonyl)piperazin-1-yl)-3-((pyridin-3-yloxy)methyl)-1,2,4-oxadiazole]	65
CCCc1noc(N2CCN(S(=O)(=O)c3ccc(OC)cc3)CC2)n1 [Cmpd207, 5-(4-((4-Methoxyphenyl)sulfonyl)piperazin-1-yl)-3-propyl-1,2,4-oxadiazole]	406
CCCCc1noc(N2CCN(S(=O)(=O)c3ccc(OC)cc3)CC2)n1 [Cmpd208, 3-Butyl-5-(4-((4-methoxyphenyl)sulfonyl)piperazin-1-yl)-1,2,4-oxadiazole]	98
COc1ccc(S(=O)(=O)N2CCN(c3nc(C(C)(C)C)no3)CC2)cc1 [Cmpd209, 3-(Tert-butyl)-5-(4-((4-methoxyphenyl)sulfonyl)piperazin-1-yl)-1,2,4-oxadiazole]	296
COc1ccc(S(=O)(=O)N2CCN(c3nc(C4CCCCC4)no3)CC2)cc1 [Cmpd210, 3-Cyclohexyl-5-(4-((4-methoxyphenyl)sulfonyl)piperazin-1-yl)-1,2,4-oxadiazole]	327
